Reference: ChEMBL document CHEMBL1201862, “PubChem BioAssay data set” (2004)
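Compound exposure: 48 hours, 5 concentrations, 96-well plates. Abbreviation: GI50, concentration required for 50% inhibition of growth.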 The source made the active and inactive calls. No stated cut-off is given here; in the data, active = GI50 up to about 1.1 µM and inactive = higher.

Legend:
Test in all cases: growth of human tumour cells (NCI), 48 h
CCRF-CEM = test system: CCRF-CEM
COLO 205 = test system: COLO 205
EKVX = test system: EKVX
HCT-116 = test system: HCT-116
KM12 = test system: KM12
NCI-H226 = test system: NCI-H226
NCI-H460 = test system: NCI-H460
NCI-H522 = test system: NCI-H522
OVCAR-3 = test system: OVCAR-3
RXF 393 = test system: RXF 393
SK-MEL-2 = test system: SK-MEL-2
SK-OV-3 = test system: SK-OV-3
SN12C = test system: SN12C
UACC-62 = test system: UACC-62
UO-31 = test system: UO-31
DU-145 = test system: DU-145
MDA-MB-435 = test system: MDA-MB-435
MDA-N = test system: MDA-N

Measured: GI50

CCOC(=O)C[C@@H](C)[C@]1(C(=O)OC)CCCC1=O
inactive: CCRF-CEM 44.6 µM | COLO 205 > 51.8 µM | EKVX > 100 µM | HCT-116 > 41.1 µM | KM12 > 100 µM | NCI-H226 > 100 µM | NCI-H460 > 67 µM | NCI-H522 > 100 µM | OVCAR-3 > 100 µM | RXF 393 > 100 µM | SK-MEL-2 > 100 µM | SK-OV-3 > 100 µM | SN12C > 100 µM | UACC-62 > 100 µM | UO-31 > 100 µM

CCOC(OC1=CCCC1)C(C)[Se]c1ccccc1 (stereo unspecified)
inactive: CCRF-CEM 15.2 µM | COLO 205 18.7 µM | EKVX 34.2 µM | HCT-116 20.9 µM | KM12 43.8 µM | NCI-H226 36.1 µM | NCI-H460 19.6 µM | NCI-H522 17.9 µM | OVCAR-3 34.5 µM | RXF 393 32.9 µM | SK-MEL-2 48.4 µM | SK-OV-3 > 100 µM | SN12C 30.7 µM | UACC-62 23.9 µM | UO-31 39.3 µM

CC(=O)O/N=C/c1ncccc1OC(C)=O
inactive: CCRF-CEM > 100 µM | COLO 205 > 100 µM | EKVX > 100 µM | HCT-116 > 100 µM | KM12 > 100 µM | NCI-H226 > 100 µM | NCI-H460 > 100 µM | NCI-H522 > 100 µM | OVCAR-3 > 100 µM | RXF 393 > 100 µM | SK-MEL-2 > 100 µM | SK-OV-3 > 100 µM | SN12C > 100 µM | UACC-62 > 100 µM | UO-31 > 100 µM

C/C(=C1/CCC/C(=C(/C)c2ccccc2)C1=O)c1ccccc1
inactive: CCRF-CEM 22.2 µM | COLO 205 65.6 µM | EKVX 45.8 µM | HCT-116 18.5 µM | KM12 27 µM | NCI-H226 17.4 µM | NCI-H460 27.2 µM | NCI-H522 33.6 µM | OVCAR-3 64.4 µM | RXF 393 17.6 µM | SK-MEL-2 15.1 µM | SK-OV-3 > 100 µM | SN12C 50.7 µM | UACC-62 37.2 µM | UO-31 44.6 µM

CC(C)(C)OC(=O)N1CC(C)(C)N2C(=O)C3(CCCO3)C12 (stereo unspecified)
inactive: CCRF-CEM 67.1 µM | COLO 205 > 100 µM | EKVX > 100 µM | HCT-116 > 100 µM | KM12 > 100 µM | NCI-H226 > 100 µM | NCI-H460 > 100 µM | NCI-H522 > 100 µM | OVCAR-3 > 100 µM | RXF 393 > 100 µM | SK-MEL-2 > 100 µM | SK-OV-3 > 100 µM | SN12C > 100 µM | UACC-62 > 100 µM | UO-31 > 100 µM

Cn1c(=O)c2[nH]c(Nc3cccc(Cl)c3)nc2n(C)c1=O
inactive: CCRF-CEM 3.96 µM | COLO 205 3.6 µM | DU-145 4.76 µM | EKVX 4.16 µM | KM12 4.78 µM | MDA-MB-435 3.82 µM | MDA-N 4.21 µM | RXF 393 2.05 µM | SK-OV-3 6.17 µM | SN12C 5.77 µM | UACC-62 3.17 µM

COc1cc(/C=C2\[C@H]3c4c(c(OC)c(C)c(OC)c4OC)CC(C(=O)N2Cc2ccccc2)N3C)c(OC)c(C)c1OC
inactive: CCRF-CEM 19.1 µM | COLO 205 17.3 µM | EKVX 26.1 µM | HCT-116 > 100 µM | KM12 36 µM | NCI-H226 10.4 µM | NCI-H460 16.6 µM | NCI-H522 13.1 µM | OVCAR-3 16.7 µM | RXF 393 > 100 µM | SK-MEL-2 > 10 µM | SK-OV-3 29.5 µM | SN12C 17.9 µM | UACC-62 16.4 µM | UO-31 19.3 µM
